According to patent US20160215306A1 (priority 2013, published 2016):
In brackets after ≈: the same amount, converted by molar mass. Like-named read-outs stand apart in the source and are kept apart here.

Tests used:
[1] = test system: β-glucuronidase; experiment: Cleavage of glucose from resveratrol glucosides by β-glucuronidase; assay type: biochemical; settings: 7 - β-glucuronidase
[2] = Separate experiment: plasma levels after single oral or IV administration, LC-MS; settings: for Plasma level of the administered compound after IV administration / Plasma level of the administered compound after oral administration: single dose 10 mL/kg, FIG. 21
[3] = test system: β-galactosidase from A. oryzae; experiment: Cleavage of glucose from resveratrol glucosides by β-galactosidase; assay type: biochemical; settings: 6 - β-galactosidase A. oryzae
[4] = test system: Glusulase; experiment: Cleavage of glucose from resveratrol glucosides by Glusulase; assay type: biochemical; settings: 4 - Glusulase
[5] = Solubility in water of purified compounds (H2O saturation, HPLC quantification); settings: for solubility at 1 min: water, thermodynamic from solid
[6] = test system: recombinant β-glucosidase (GO16L, IFF); experiment: Cleavage of glucose from resveratrol glucosides by recombinant β-glucosidase; assay type: biochemical; settings: 1 - β-glucosidase (IFF)
[7] = test system: Depol™ cellulase (Biocatalysts); experiment: Cleavage of glucose from resveratrol glucosides by Depol cellulase; assay type: biochemical; settings: 2 - Depol IFF (cellulase)
[8] = molecular target: T1, EXG1 (Saccharomyces cerevisiae, UniProt P23776); experiment: Cleavage of glucose from resveratrol glucosides by broth enriched with EXG1; assay type: biochemical, S. cerevisiae; settings: 8 - EXG1 broth
T1 sequence (P23776 41-448): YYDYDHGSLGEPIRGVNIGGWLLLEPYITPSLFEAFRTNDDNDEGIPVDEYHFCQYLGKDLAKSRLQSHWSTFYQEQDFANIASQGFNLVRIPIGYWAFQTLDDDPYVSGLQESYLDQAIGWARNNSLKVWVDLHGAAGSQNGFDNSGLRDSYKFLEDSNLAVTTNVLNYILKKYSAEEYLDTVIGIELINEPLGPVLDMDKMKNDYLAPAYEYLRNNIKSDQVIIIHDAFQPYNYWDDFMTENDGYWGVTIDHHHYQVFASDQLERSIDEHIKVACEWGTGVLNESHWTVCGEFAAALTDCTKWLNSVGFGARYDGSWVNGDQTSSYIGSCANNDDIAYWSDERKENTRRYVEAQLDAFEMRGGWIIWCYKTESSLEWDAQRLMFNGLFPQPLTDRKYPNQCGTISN

[9] = test system: Cellobiase from A. niger; assay type: biochemical
[10] = test system: Cellulase T. reesei; assay type: biochemical
[11] = mouse, in vivo
[12] = in water; cited from earlier work
[13] = Pharmacokinetic profiling: plasma levels after single IV or oral administration; assay type: in vivo, CD1 male mice
[14] = test system: EXG1; experiment: Cleavage of piceid by S. cerevisiae cells with or without EXG1; settings: second S. cerevisiae strain (lacking EXG1), 125 mg/L piceid, overnight
[15] = molecular target: EXG1 (Saccharomyces cerevisiae, UniProt P23776); experiment: as above; settings: S. cerevisiae cells with functional EXG1, 125 mg/L piceid, overnight
[16] = male, CD1, mouse, plasma, intravenous, 10 mg/kg

| Compound | % cleavage in conditions tested [1] | Plasma level of the administered compound after IV administration [2] | Plasma level of the administered compound after oral administration [2] | % cleavage in conditions tested [3] | % cleavage in conditions tested [4] | % cleavage in conditions tested [6] | % cleavage in conditions tested [7] | % cleavage in conditions tested [8] | % cleavage in conditions tested [9] | % cleavage in conditions tested [10] | Solubility mg/L (Literatrure) [12] | solubility at 1 min [5] | also measured |
| --- | --- | --- | --- | --- | --- | --- | --- | --- | --- | --- | --- | --- | --- |
| OC[C@H]1O[C@@H](Oc2ccc(/C=C/c3cc(O)cc(O)c3)cc2)[C@H](O)[C@@H](O)[C@@H]1O (relative stereo) [Resveratroloside, trans-resveratrol-4′-O-β-glucoside] | ✓ (✓ = >95%) | low | low | ✓ (✓ = >95%) | ✓ (✓ = >95%) | ✓ (✓ = >95%) | ✓ (✓ = >95%) | • (• = 5-49%) | – | – | – | – | Plasma levels of resveratrol after administration of the glucoside ([2]; oral and IV administration): a sharp increase in resveratrol; Solubility mg/L (in house) ([5]; in nanopure H2O, HPLC): 1,300 mg/L |
| cis/trans-resveratrol-3,5-di-O-β-glucoside [3,5-resveratrol diglucoside] | ✓ (✓ = >95%) | – | – | ✓ (✓ = >95%) | ✓ (✓ = >95%) | ✓ (✓ = >95%) | ✓ (✓ = >95%) | • (• = 5-49%) | ✓ (key: ✓ = >95%; ♦ = 50-95%; • = 5-49%; X = 0%) | ✓ (key: ✓ = >95%; ♦ = 50-95%; • = 5-49%; X = 0%) | – | – | Time of highest plasma level of administered compound, IV ([11]; iv): 1 h; Time within which plasma level declined, IV ([11]; iv): ≤ 4 h; Plasma level of the administered compound after oral administration ([11]; po): high levels; Time within which plasma level declined, oral ([11]; po): ≤ 3 h |
| Oc1ccc(C=Cc2cc(O)cc(O)c2)cc1 [Resveratrol, 3,5,4′-trihydroxy-stilbene] | – | an increase in resveratrol plasma levels appeared 4 h post-administration | cleared quickly | – | – | – | – | – | – | – | 15 to 30 mg/L | 30 to 40 µg/mL (≈ 131 to 175 µM) | concentration at 0.25 h [13, 16]: 40 ng/mL; concentration at 0.5 h [13, 16]: 4 ng/mL |
| OC[C@H]1O[C@@H](Oc2ccc(/C=C/c3cc(O)cc(O[C@@H]4O[C@H](CO)[C@@H](O)[C@H](O)[C@H]4O)c3)cc2)[C@H](O)[C@@H](O)[C@@H]1O (relative stereo) [3,4′-resveratrol diglucoside, trans-resveratrol-3,4′-di-O-β-glucoside] | ✓ (✓ = >95%) | – | – | ✓ (✓ = >95%) | ✓ (✓ = >95%) | ✓ (✓ = >95%) | ✓ (✓ = >95%) | ♦ (♦ = 50-95%) | ✓ (key: ✓ = >95%; ♦ = 50-95%; • = 5-49%; X = 0%) | ✓ (key: ✓ = >95%; ♦ = 50-95%; • = 5-49%; X = 0%) | – | – | Plasma level relative to 3,5-resveratrol diglucoside, oral ([11]; po): approximately 3 fold; Time within which compound was cleared from plasma, oral ([11]; po): ≤ 1 h |
| OC[C@H]1O[C@@H](Oc2cc(O)cc(C=Cc3ccc(O)cc3)c2)[C@H](O)[C@@H](O)[C@@H]1O [Piceid, resveratrol 3-O-β-D-glucopyranoside] | ✓ (✓ = >95%) | – | detected at a low level | ✓ (✓ = >95%) | ✓ (✓ = >95%) | ✓ (✓ = >95%) | ✓ (✓ = >95%) | ♦ (♦ = 50-95%) | ✓ (key: ✓ = >95%; ♦ = 50-95%; • = 5-49%; X = 0%) | ✓ (key: ✓ = >95%; ♦ = 50-95%; • = 5-49%; X = 0%) | 69 mg/L (≈ 177 µM) | 200 to 300 µg/mL (≈ 512 to 768 µM) | Detection of administered compound in plasma after IV administration ([13]; 10 mg/kg IV): detectable; Detection of administered compound in plasma after oral administration ([13]; 10 mg/kg PO): detectable; Systemic conversion to trans-resveratrol ([13]; after IV and oral administration): converted to trans-resveratrol systemically; concentration at 0.25 h ([13]; male, CD1, mouse, plasma, piceid 10 mg/kg IV, 0.25 h, read-out: Piceid (Detection of piceid) in plasma, IV): 2830 ng/mL; concentration at 0.5 h ([13]; male, CD1, mouse, plasma, piceid 10 mg/kg IV, 0.5 h, read-out: Piceid (Detection of piceid) in plasma, IV): 320 ng/mL; concentration at 1 h ([13]; male, CD1, mouse, plasma, piceid 10 mg/kg IV, read-out: Piceid (Detection of piceid) in plasma, IV): 50 ng/mL; concentration at 0.5 h ([13]; male, CD1, mouse, plasma, piceid 10 mg/kg PO, 0.5 h, read-out: Piceid (Detection of piceid) in plasma, PO): 5 ng/mL; concentration at 1 h ([13]; male, CD1, mouse, plasma, piceid 10 mg/kg PO, read-out: Piceid (Detection of piceid) in plasma, PO): 8 ng/mL; concentration at 2 h ([13]; male, CD1, mouse, plasma, piceid 10 mg/kg PO, 2 h, read-out: Piceid (Detection of piceid) in plasma, PO): 4 ng/mL; Piceid cleaved [14]: less than 0.5%; Piceid cleaved, yielding resveratrol [15]: approximately 25%; Piceid detected in plasma after IV administration ([2]; piceid 17.1 mg/kg IV): approximately 900 ng/mL |
